Source: patent US20250280821A1, “PERFUSION AND METABOLIC RESTORATION OF ORGANS” (Bexorg, Inc., priority 2024, published 2025)

System: tissue of the dorsomedial prefrontal cortex (dmPFC) of the brain 110
Experiment: Raman spectroscopy of brain tissue during ex-vivo perfusion with rapamycin in the perfusate
Assay type: in vitro ADME, human
Settings: ex-vivo perfused brain
Description: As previously discussed, the perfusion system 100 also includes a Raman spectroscopy probe 172 that is coupled to or positioned near the brain housing 102 for performing Raman spectroscopy on the tissue of the brain 110 in real-time during perfusion of the brain 110. Once the brain 110 is fluidly coupled to the organ line 144 and is positioned inside the brain housing 102, the Raman spectroscopy probe 172 is positioned on the surface of the brain 110 and can be operated periodically throughout the perfusion process to perform Raman spectroscopy on the tissue of the brain 110 in real-time as the brain is perfused. […]
The data generated by the Raman spectroscopy probe 172 can be used to determine whether the pharmaceutical compound is capable of crossing the blood-brain barrier. The pharmaceutical compound can be determined as capable of crossing the blood-brain barrier in response to detecting that one or more chemical compounds corresponding to the pharmaceutical compound are present in the tissue of the brain 110 using the Raman spectroscopy probe 172. In addition, the percentage of the pharmaceutical compound taken up and metabolized by the brain 110 can be determined based on the concentration of one or more chemical compounds corresponding to the pharmaceutical compound that is detected in the tissue of the brain 110 by the Raman spectroscopy probe 172. […]

ability to cross the blood-brain barrier of the brain (rapamycin added to perfusate by syringe pump, Raman spectroscopy of dmPFC tissue (FIG. 6)): able to cross the blood-brain barrier
Compound: CO[C@H]1C[C@@H]2CC[C@@H](C)[C@@](O)(O2)C(=O)C(=O)N2CCCC[C@H]2C(=O)O[C@H]([C@H](C)C[C@@H]2CC[C@@H](O)[C@H](OC)C2)CC(=O)[C@H](C)/C=C(\C)[C@@H](O)[C@@H](OC)C(=O)[C@H](C)C[C@H](C)/C=C/C=C/C=C/1C [rapamycin]
concentration of rapamycin present in the brain (Raman spectroscopy of dmPFC tissue over time (FIG. 6)): continually increased until a stable concentration 604 was reached
